{"source": "patent US5672603A", "about": "“Apoptosis regulating composition” (Otsuka Pharmaceutical Co., Ltd., priority 1991, dated 1997)", "molecules": {"B1": {"name": "lymphotoxin (LT): lymphotoxin (LT) (protein, UniProt P01374 35-205, looked up)", "Lymphotoxin-alpha": "LPGVGLTPSAAQTARQHPKMHLAHSTLKPAAHLIGDPSKQNSLLWRANTDRAFLQDGFSLSNNSLLVPTSGIYFVYSQVVFSGKAYSPKATSSPLYLAHEVQLFSSQYPFHVPLLSSQKMVYPGLQEPWLHSMYHGAAFQLTQGDQLSTHTDGIPHLVLSPSTVFFGAFAL"}, "B2": {"name": "G-CSF: granulocyte colony stimulating factor (protein, UniProt P09919 31-207, looked up)", "Granulocyte …": "TPLGPASSLPQSFLLKCLEQVRKIQGDGAALQEKLVSECATYKLCHPEELVLLGHSLGIPWAPLSSCPSQALQLAGCLSQLHSGLFLYQGLLQALEGISPELGPTLDTLQLDVADFATTIWQQMEELGMAPALQPTQGAMPAFASAFQRRAGGVLVASHLQSFLEVSYRVLRHLAQP"}}, "key": {"acute leukemia cells": {"system": "acute leukemia cells", "details": "literature; cited from earlier work"}, "lymphocytic tumor cells": {"system": "lymphocytic tumor cells", "details": "X-ray radiation; literature; cited from earlier work"}, "apoptosis": {"system": "apoptosis", "details": "literature; cited from earlier work"}, "HL-60 cells [1]": {"system": "HL-60 cells", "details": "literature; cited from earlier work"}, "nerve cells": {"system": "nerve cells", "details": "administration in advance; literature; cited from earlier work"}, "sympathetic nerve cells": {"system": "sympathetic nerve cells", "details": "literature; cited from earlier work"}, "[2]": {"system": "aged rats with learning disorder", "details": "literature; cited from earlier work"}, "PC12 cells": {"system": "PC12 cells", "assay": "Effect on PC12 cells (morphology, phase contrast microscope)", "details": "NGF alone group, 0.3% FCS", "protocol": "PC12 cells subcultured in Dulbecco's modified Eagle's medium (D-MEM) supplemented with 5% heat-inactivated (56° C., 30 minutes) horse serum and 10% fetal calf serum (FCS) were transferred onto collagen-coatedplastic Petri dishes (35 mm in diameter) at a concentration of 6×10^4 cells/3 ml medium."}, "HL-60 cells [3]": {"system": "HL-60 cells", "assay": "Induction of differentiation of HL-60 cells (CD11b expression, flow cytometry)", "type": "cell-based, human", "parameters": "reference not given here", "details": "30 μg/ml; 3 days; CD11b fluorescence", "method": "(§1) HL-60 cells were cultivated in RPMI-1640 medium supplemented with 10% of FCS at 37° C. under 5% CO2, and the cell concentration was adjusted to 5×10^4 cells/ml.\n(§2) Then, the above-mentioned medium containing 30 μg/ml of each test compound was added to each well of 6-well microplates (Costar), followed by 3 days of incubation at 37° C. under 5% CO2. In a control group, the above medium alone was added and incubation was performed in the same manner. Thereafter, each cultured cell suspension was sampled into an Eppendorf tube and, after staining with 0.2% trypan blue-containing phosphate buffer, viable cells were counted using a hematocytometer.\nThe above cells were adjusted to 1×10^7 cells/ml. To 100 μl of the cell suspension was added 5 μl of a solution of fluorescein isothiocyanate (FITC)-labeled anti-human CD11b antibody (Mol; Coulter) and the reaction was allowed to proceed on ice in the dark for 30 minutes. Then, cells were washed twice with PBS (phosphate-buffered saline; Nissui Pharmaceutical) containing 0.1% of BSA (bovine serum albumin; Sigma), finally suspended in 500 μl of the BSA-containing PBS and measured for fluorescence intensity by flow cytometry using Profile II (Coulter)."}, "HL-60 cells [4]": {"system": "HL-60 cells", "assay": "HL-60 cell growth inhibition, 3 days", "type": "cell-based", "details": "Homo sapiens, HL-60, 72 h, 30 μg/ml, read-out: Cell growth inhibiting effect (%)", "method": "as §1, §2"}, "[5]": {"system": "small intestine crypt cells", "details": "literature; cited from earlier work"}}, "note": "Numbered stars: 1 amine (or outer) side, 2 acyl side, 3 side chain; on linkers, the order of the positions; unused ones are H or OH. Bridge positions count the residues as written; N and C are the ends. Square brackets hold non-standard residues; d marks the D form. Peptide text beside a SMILES is read from it. I, II: the chains in the order shown. Actinocin(9to1) = Cc1c2oc3c(C)ccc(C(=O)[*:1])c3nc-2c(C(=O)[*:2])c(N)c1=O; NMeV = CN[C@H](C(=O)O)C(C)C; Sar = CNCC(=O)O", "data": [{"molecule": "C[C@@H]1C[C@@H]([C@H](O)CC2CC(=O)NC(=O)C2)C(=O)[C@@H](C)C1", "note": "[cycloheximide]", "values": [{"measurement": "Apoptosis induction in acute leukemia cells", "setting": "acute leukemia cells", "value": "apoptosis induction"}, {"measurement": "Apoptosis of lymphocytic tumor cells", "setting": "lymphocytic tumor cells", "value": "suppresses"}, {"measurement": "Repression of apoptosis", "setting": "apoptosis", "value": "capable of repressing apoptosis"}, {"measurement": "Apoptosis induction in HL-60 cells", "setting": "HL-60 cells [1]", "value": "apoptosis induction"}]}, {"molecule": "NGF: nerve growth factor (NGF, Wako Pure Chemical)", "values": [{"measurement": "Nerve cell death in development stage", "setting": "nerve cells", "value": "complete inhibition of nerve cell death"}, {"measurement": "Programmed death of sympathetic nerve cells", "setting": "sympathetic nerve cells", "value": "can inhibit programmed death of sympathetic nerve cells"}, {"measurement": "Recovery from learning disorder", "setting": "[2]", "value": "can recover from learning disorder"}, {"measurement": "Formation of nerve-like processes, NGF stimulation", "setting": "PC12 cells", "value": "formation of nerve-like processes"}]}, {"molecule": "COc1ccc(C(=O)N2CCN(c3ccc4[nH]c(=O)ccc4c3)CC2)cc1OC", "note": "[Compound 7, 6-[4-(3,4-Dimethoxybenzoyl)-1-piperazinyl]carbostyril]", "values": [{"measurement": "Induction of differentiation promoting effect", "setting": "HL-60 cells [3]", "value": 898}, {"measurement": "inhibition at 30 µg/mL", "setting": "HL-60 cells [4]", "value": 24.1, "unit": "%"}]}, {"molecule": "COc1ccc(C(=O)N2CCN(c3cccc4c3CCC(=O)N4)CC2)cc1OC", "note": "[Compound 6, 5-[4-(3,4-Dimethoxybenzoyl)-1-piperazinyl]-3,4-dihydrocarbostyril]", "values": [{"measurement": "Induction of differentiation promoting effect", "setting": "HL-60 cells [3]", "value": 303}]}, {"molecule": "COc1ccc(C(=O)N2CCN(c3ccc4c(c3)NC(=O)CC4)CC2)cc1OC", "note": "[Compound 4, 7-[4-(3,4-Dimethoxybenzoyl)-1-piperazinyl]-3,4-dihydrocarbostyril]", "values": [{"measurement": "Induction of differentiation promoting effect", "setting": "HL-60 cells [3]", "value": 383}]}, {"molecule": "GM-CSF: granulocyte macrophage colony stimulating factor", "values": [{"measurement": "Repression of apoptosis", "setting": "apoptosis", "value": "repress apoptosis"}]}, {"molecule": "CCOc1ccc(C(=O)N2CCN(c3ccc4c(c3)CCC(=O)N4)CC2)cc1", "note": "[Compound 5, 6-[4-(4-Ethoxybenzoyl)-1-piperazinyl]-3,4-dihydrocarbostyril]", "values": [{"measurement": "Induction of differentiation promoting effect", "setting": "HL-60 cells [3]", "value": 232}]}, {"molecule": "COc1cc(C(=O)N2CCN(c3ccc4c(c3)CCC(=O)N4)CC2)cc(OC)c1OC", "note": "[Compound 2, 6-[4-(3,4,5-Trimethoxybenzoyl)-1-piperazinyl]-3,4-dihydrocarbostyril]", "values": [{"measurement": "inhibition at 30 µg/mL", "setting": "HL-60 cells [4]", "value": 20.2, "unit": "%"}]}, {"molecule": "COc1cc(C(=O)N2CCN(c3ccc4c(c3)NC(=O)CC4)CC2)cc(OC)c1OC", "note": "[Compound 3, 7-[4-(3,4,5-Trimethoxybenzoyl)-1-piperazinyl]-3,4-dihydrocarbostyril]", "values": [{"measurement": "Induction of differentiation promoting effect", "setting": "HL-60 cells [3]", "value": 384}]}, {"molecule": "COc1ccc(C(=O)N2CCN(c3cccc4c3NC(=O)CC4)CC2)cc1OC", "note": "[Compound 8, 8-[4-(3,4-Dimethoxybenzoyl)-1-piperazinyl]-3,4-dihydrocarbostyril]", "values": [{"measurement": "Induction of differentiation promoting effect", "setting": "HL-60 cells [3]", "value": 344}, {"measurement": "inhibition at 30 µg/mL", "setting": "HL-60 cells [4]", "value": 24.9, "unit": "%"}]}, {"molecule": "bcl-2 gene product: bcl-2 gene product", "values": [{"measurement": "Repression of apoptosis", "setting": "apoptosis", "value": "repress apoptosis"}]}, {"molecule": "Cc1c2oc3c(C)ccc(C(=O)N[C@@H]4C(=O)N[C@H](C(C)C)C(=O)N5CCC[C@H]5C(=O)N(C)CC(=O)N(C)[C@@H](C(C)C)C(=O)O[C@@H]4C)c3nc-2c(C(=O)N[C@@H]2C(=O)N[C@H](C(C)C)C(=O)N3CCC[C@H]3C(=O)N(C)CC(=O)N(C)[C@@H](C(C)C)C(=O)O[C@@H]2C)c(N)c1=O", "note": "[actinomycin D] (I: T[dV]P[Sar][NMeV] / II: T[dV]P[Sar][NMeV]; ester I:1-I:C, II:1-II:C; linker I:N-II:N via Actinocin(9to1))", "values": [{"measurement": "Apoptosis of lymphocytic tumor cells", "setting": "lymphocytic tumor cells", "value": "potentiates"}, {"measurement": "Repression of apoptosis", "setting": "apoptosis", "value": "capable of repressing apoptosis"}, {"measurement": "Apoptosis induction in small intestine crypt cells", "setting": "[5]", "value": "apoptosis induction"}, {"measurement": "Apoptosis induction in HL-60 cells", "setting": "HL-60 cells [1]", "value": "apoptosis induction"}]}, {"molecule": "B1", "values": [{"measurement": "Induction of apoptosis", "setting": "apoptosis", "value": "induced"}]}, {"molecule": "B2", "values": [{"measurement": "Repression of apoptosis", "setting": "apoptosis", "value": "repress apoptosis"}]}]}
